Results on nine compounds are retold here after US7332468B2, “8-tetradecenal as fragrance and flavoring substance” (Symrise GmbH & Co. KG, priority 2001, dated 2008).

Assay [1] can be described thus: Determination of the odor threshold values in water. Here is the method: The odor threshold values in water were determined in the conventional manner for (Z)-8- and (E)-8-tetradecenal and for two comparison substances.
Assay [2] is described as follows: Odor description by a panel of expert flavoring specialists, ranking scale 0-4. Also on record: key to Green-herby / Honey-like (beeswax) / Fresh, fizzy / Citrus-like / Fruity / Flowery / Of orange peel / Of pith / Sweet / Fatty / Waxy: 0: absent; 1: weak; 2: moderate; 3: strong; 4: very strong. Particulars: odor ranking 0-4, expert panel. On the procedure:
The substances (Z)-8- and (E)-8-tetradecenal according to the invention were tested by a panel of expert flavoring specialists in the conventional manner. The experts assessed the relevant odors on the basis of the procedure in the article entitled “Organoleptic properties of aliphatic aldehydes”, Boelens, Mans H.; Van Gemert, Leo J.; Perfum. Flavor. (1987), 12(5), 31-7, 40, 43, which has already been cited, i.e. they quantified the odors of the particular substance on the basis of an assessment scale with rankings of 0-4. The rankings have the following meanings: • 0: absent • 1: weak • 2: moderate • 3: strong • 4: very strong

A short description of assay [3]: Modification of a conventional orange flavor composition. To be noted: based on the total mass of the composition. From the text: A conventional flavor composition (composition A) was compared with a flavor composition according to the invention (composition B).
For assay [4] the following is noted: Cadwallader et al. 1999; cited from earlier work.
The conditions of assay [5]: Boelens, Van Gemert 1987; cited from earlier work.

For `CCCCCC/C=C\CCCCCC=O` [7-(Z)-tetradecenal, (Z)-7-tetradecenal], the “usable sensory properties compared with (Z)-8-tetradecenal” value in assay [1] is recorded as “do not have any usable sensory properties”. Moreover, in assay [1] (in water), the Odor threshold value came out at 2.60 ppb and the “odor threshold compared with that of (Z)-8-tetradecenal” value is “approximately two orders of magnitude higher”.

In the case of `CCCCC/C=C/CCCCCCC=O` [8-(E)-tetradecenal, (E)-8-tetradecenal], in assay [2], the Chemical is recorded as 2-3, the Citrus-like is 1-2, the Fatty was 4 and the Flowery was 0-1. In assay [2], the “Fresh, fizzy” value is given as 0; the Fruity was 0; the Green-herby came out at 1; the “Honey-like (beeswax)” value came out at 0. Further, in assay [2], the Of orange peel stood at 0, the Of pith worked out at 1, the Sweet is on record as 1-2 and the Waxy is 4. In assay [1] (in water), the Odor threshold value is listed as 1.24 ppb.

In the case of `CCCCC/C=C\CCCCCCC=O` [8-(Z)-tetradecenal, (Z)-8-tetradecenal], in assay [2], the Chemical was 0-1, the Citrus-like amounted to 4, the Fatty is listed as 1 and the Flowery amounted to 2. Moreover, in assay [2], the “Fresh, fizzy” value stood at 4; the Fruity amounted to 1; the Green-herby came out at 0; the “Honey-like (beeswax)” value is reported as 2. For the same compound, in assay [2], the Of orange peel is listed as 4, the Of pith was 4, the Sweet is given as 3 and the Waxy is 1-2. In addition, in assay [1] (in water), the Odor threshold value turned out to be 0.009 ppb; the “odor threshold value lower than that of (Z)-7-tetradecenal and (Z)-9-tetradecenal” value is on record as “approximately 2 orders of magnitude”. Moreover, the “proportion sufficient to make a conventional orange flavor fresher, juicier, more typical and more harmonious” value in assay [3] is 0.001 % (m/m).

`CCCC/C=C\CCCCCCCC=O` [9-(Z)-tetradecenal, (Z)-9-tetradecenal]: in assay [1], the “usable sensory properties compared with (Z)-8-tetradecenal” value is reported as “do not have any usable sensory properties”. In addition, in assay [1] (in water), the Odor threshold value was determined as 1.44 ppb and the “odor threshold compared with that of (Z)-8-tetradecenal” value is on record as “approximately two orders of magnitude higher”.

As for `CCCCCCCCCCC/C=C/C=O` [(E)-2-tetradecenal], the odor description entry in assay [4] is listed as “fatty, waxy, cheesy”. In assay [5], the citrus aspect entry is reported as “weak” and the fatty aspect entry is “strong”.

Regarding `CCCCC/C=C/CCC=O` [(E)-4-decenal], the odor description result in assay [4] is on record as “citrus peel”.

On to `CCCCCCC/C=C/C=O` [trans-2-decenal], for which, in assay [5], the citrus aspect result is given as “noteworthy”.

Regarding `CCCCC/C=C/C=O` [trans-2-octenal], the citrus aspect result in assay [5] is listed as “noteworthy”.

With `CCCCCCCC/C=C/C=O` [trans-2-undecenal], the citrus aspect entry in assay [5] was “noteworthy”.
